Reference: paper PMC9653409, “Generative deep learning enables the discovery of a potent and selective RIPK1 inhibitor” (Nature Communications, 2022)
Where two headings read alike, the source gives them in different places.

Columns and labels:
Assay in all cases: Kinase inhibitory activity profiling of RI-962@10 µM (406 kinases, Eurofins)
Format in all cases: biochemical
[1] = target: panel of human kinases (kinase named in endpoint) (Homo sapiens, UniProt P23458); conditions: 10 µM; read-out: Activity (%), JAK1(h)
Method: (§1) In vitro kinase activity assays were conducted through the Kinase Profiling Services provided by Eurofins (Eurofins, France). The protocol for the RIPK1 assay is briefly described as follows (Protocols for other kinases are very similar and can be found in http://www.eurofins.com/pharmadiscovery). RIPK1 kinase was incubated with the test compound in assay buffer containing 8 mM MOPS (pH 7.0), 0.2 mM EDTA, 250 μM […], 10 mM magnesium acetate, and 10 μM [γ-33P]-ATP for 15 min at room temperature. The reaction was initiated by the addition of the Mg/ATP mixture. After incubation for 40 min at room temperature, and the reaction was stopped by the addition of 3% phosphoric acid. A 10 μL portion of the reaction mixture was then spotted onto a P30 filter mat and washed four times for 4 min in 0.425% phosphoric acid and once in methanol prior to drying and scintillation counting.

[2] = target: panel of human kinases (kinase named in endpoint) (Homo sapiens, UniProt Q9Y2H1); conditions: 10 µM; read-out: Activity (%), NDR2(h)
Method: as §1

[3] = target: panel of human kinases (kinase named in endpoint) (Homo sapiens, UniProt P06241); conditions: 10 µM; read-out: Activity (%), Fyn(h)
Method: as §1

[4] = target: panel of human kinases (kinase named in endpoint) (Homo sapiens, UniProt Q9Y243); conditions: 10 µM; read-out: Activity (%), PKBγ(h)
Method: as §1

[5] = target: panel of human kinases (kinase named in endpoint) (Homo sapiens, UniProt P49841); conditions: 10 µM; read-out: Activity (%), GSK3β(h)
Method: as §1

[6] = target: panel of human kinases (kinase named in endpoint) (Homo sapiens, UniProt Q8IZX4); conditions: 10 µM; read-out: Activity (%), TAF1L(h)
Method: as §1

[7] = target: panel of human kinases (kinase named in endpoint) (Homo sapiens, UniProt Q14004); conditions: read-out: Activity (%), CDK13/cyclinK(h)
Method: as §1

[8] = target: panel of human kinases (kinase named in endpoint) (Homo sapiens, UniProt Q2M2I8); conditions: 10 µM; read-out: Activity (%), AAK1(h)
Method: as §1

[9] = target: panel of human kinases (kinase named in endpoint) (Homo sapiens, UniProt P08922); conditions: 10 µM; read-out: Activity (%), Ros(h)
Method: as §1

[10] = target: panel of human kinases (kinase named in endpoint) (Homo sapiens, UniProt Q00526); conditions: 10 µM; read-out: Activity (%), CDK3/cyclinE(h)
Method: as §1

[11] = target: panel of human kinases (kinase named in endpoint) (Homo sapiens, UniProt O96017, I157T); conditions: 10 µM; read-out: Activity (%), CHK2(I157T)(h)
Method: as §1

[12] = target: panel of human kinases (kinase named in endpoint) (Homo sapiens, UniProt Q9Y6M4); conditions: 10 µM; read-out: Activity (%), CK1γ3(h)
Method: as §1

[13] = target: panel of human kinases (kinase named in endpoint) (Homo sapiens, UniProt P42338); conditions: 10 µM; read-out: Activity (%), PI3 Kinase (p110b/p85a)(h)
Method: as §1

[14] = target: panel of human kinases (kinase named in endpoint) (Homo sapiens, UniProt Q9HCP0); conditions: 10 µM; read-out: Activity (%), CK1γ1(h)
Method: as §1

[15] = target: panel of human kinases (kinase named in endpoint) (Homo sapiens, UniProt Q9NWZ3); conditions: 10 µM; read-out: Activity (%), IRAK4(h)
Method: as §1

[16] = target: panel of human kinases (kinase named in endpoint) (Homo sapiens, UniProt P15056, V600E); conditions: 10 µM; read-out: Activity (%), B-Raf(V599E)(h)
Method: as §1

[17] = target: panel of human kinases (kinase named in endpoint) (Homo sapiens, UniProt Q07002); conditions: 10 µM; read-out: Activity (%), CDK18/cyclinY(h)
Method: as §1

[18] = target: panel of human kinases (kinase named in endpoint) (Homo sapiens, UniProt P19525); conditions: 10 µM; read-out: Activity (%), PKR(h)
Method: as §1

[19] = target: panel of human kinases (kinase named in endpoint) (Homo sapiens, UniProt O00329); conditions: 10 µM; read-out: Activity (%), PI3 Kinase (p110d/p85a)(h)
Method: as §1

[20] = target: panel of human kinases (kinase named in endpoint) (Homo sapiens, UniProt Q16539, T106M); conditions: 10 µM; read-out: Activity (%), SAPK2a(T106M)(h)
Method: as §1

[21] = target: panel of human kinases (kinase named in endpoint) (Homo sapiens, UniProt Q13464); conditions: 10 µM; read-out: Activity (%), ROCK-I(h)
Method: as §1

[22] = target: panel of human kinases (kinase named in endpoint) (Homo sapiens, UniProt O00443); conditions: 10 µM; read-out: Activity (%), PI3KC2a(h)
Method: as §1

[23] = target: panel of human kinases (kinase named in endpoint) (Homo sapiens, UniProt P08069); conditions: 10 µM
Method: as §1

[24] = target: panel of human kinases (kinase named in endpoint) (Homo sapiens, UniProt P00533, L861Q); conditions: 10 µM; read-out: Activity (%), EGFR(L861Q)(h)
Method: as §1

[25] = target: panel of human kinases (kinase named in endpoint) (Homo sapiens, UniProt P51617); conditions: 10 µM; read-out: Activity (%), IRAK1(h)
Method: as §1

Chain of panel of human kinases (kinase named in endpoint) (Homo sapiens, UniProt P08069) (P08069 31-1367): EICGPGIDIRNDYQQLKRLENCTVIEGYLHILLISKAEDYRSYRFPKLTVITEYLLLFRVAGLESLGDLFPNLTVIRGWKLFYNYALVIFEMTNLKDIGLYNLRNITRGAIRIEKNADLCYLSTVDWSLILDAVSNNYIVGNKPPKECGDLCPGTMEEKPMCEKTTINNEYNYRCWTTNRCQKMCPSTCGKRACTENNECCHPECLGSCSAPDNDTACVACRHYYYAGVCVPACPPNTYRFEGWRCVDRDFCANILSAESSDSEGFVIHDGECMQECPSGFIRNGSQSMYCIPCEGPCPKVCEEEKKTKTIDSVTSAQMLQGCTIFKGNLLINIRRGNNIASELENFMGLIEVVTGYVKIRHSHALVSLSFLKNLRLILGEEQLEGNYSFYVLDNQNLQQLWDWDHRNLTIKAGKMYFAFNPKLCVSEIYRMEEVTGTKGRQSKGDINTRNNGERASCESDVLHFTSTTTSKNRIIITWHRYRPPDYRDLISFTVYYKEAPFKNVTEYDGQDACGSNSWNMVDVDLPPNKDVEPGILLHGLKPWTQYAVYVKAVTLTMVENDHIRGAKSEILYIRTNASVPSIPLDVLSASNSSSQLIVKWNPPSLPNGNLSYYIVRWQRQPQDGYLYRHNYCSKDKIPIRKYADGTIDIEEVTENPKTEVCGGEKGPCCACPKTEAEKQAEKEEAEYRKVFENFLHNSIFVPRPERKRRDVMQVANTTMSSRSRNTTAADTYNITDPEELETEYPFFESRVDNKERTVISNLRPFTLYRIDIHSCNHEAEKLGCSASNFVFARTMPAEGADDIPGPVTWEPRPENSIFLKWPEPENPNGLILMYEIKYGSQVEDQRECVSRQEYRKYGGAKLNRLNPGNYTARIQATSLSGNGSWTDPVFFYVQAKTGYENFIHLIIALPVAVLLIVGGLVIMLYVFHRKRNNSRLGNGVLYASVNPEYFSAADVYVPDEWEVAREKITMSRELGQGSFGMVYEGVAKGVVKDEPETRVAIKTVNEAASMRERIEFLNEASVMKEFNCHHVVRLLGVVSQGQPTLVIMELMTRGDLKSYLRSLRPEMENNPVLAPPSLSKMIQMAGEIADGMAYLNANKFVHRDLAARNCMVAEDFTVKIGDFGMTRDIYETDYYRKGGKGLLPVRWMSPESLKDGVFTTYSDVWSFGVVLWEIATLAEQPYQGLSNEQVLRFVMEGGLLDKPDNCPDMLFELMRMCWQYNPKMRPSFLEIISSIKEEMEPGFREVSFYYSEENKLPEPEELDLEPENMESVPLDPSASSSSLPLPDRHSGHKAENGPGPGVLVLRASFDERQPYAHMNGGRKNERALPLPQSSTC
Chain of panel of human kinases (kinase named in endpoint) (Homo sapiens, UniProt Q13464) (Q13464 whole entry): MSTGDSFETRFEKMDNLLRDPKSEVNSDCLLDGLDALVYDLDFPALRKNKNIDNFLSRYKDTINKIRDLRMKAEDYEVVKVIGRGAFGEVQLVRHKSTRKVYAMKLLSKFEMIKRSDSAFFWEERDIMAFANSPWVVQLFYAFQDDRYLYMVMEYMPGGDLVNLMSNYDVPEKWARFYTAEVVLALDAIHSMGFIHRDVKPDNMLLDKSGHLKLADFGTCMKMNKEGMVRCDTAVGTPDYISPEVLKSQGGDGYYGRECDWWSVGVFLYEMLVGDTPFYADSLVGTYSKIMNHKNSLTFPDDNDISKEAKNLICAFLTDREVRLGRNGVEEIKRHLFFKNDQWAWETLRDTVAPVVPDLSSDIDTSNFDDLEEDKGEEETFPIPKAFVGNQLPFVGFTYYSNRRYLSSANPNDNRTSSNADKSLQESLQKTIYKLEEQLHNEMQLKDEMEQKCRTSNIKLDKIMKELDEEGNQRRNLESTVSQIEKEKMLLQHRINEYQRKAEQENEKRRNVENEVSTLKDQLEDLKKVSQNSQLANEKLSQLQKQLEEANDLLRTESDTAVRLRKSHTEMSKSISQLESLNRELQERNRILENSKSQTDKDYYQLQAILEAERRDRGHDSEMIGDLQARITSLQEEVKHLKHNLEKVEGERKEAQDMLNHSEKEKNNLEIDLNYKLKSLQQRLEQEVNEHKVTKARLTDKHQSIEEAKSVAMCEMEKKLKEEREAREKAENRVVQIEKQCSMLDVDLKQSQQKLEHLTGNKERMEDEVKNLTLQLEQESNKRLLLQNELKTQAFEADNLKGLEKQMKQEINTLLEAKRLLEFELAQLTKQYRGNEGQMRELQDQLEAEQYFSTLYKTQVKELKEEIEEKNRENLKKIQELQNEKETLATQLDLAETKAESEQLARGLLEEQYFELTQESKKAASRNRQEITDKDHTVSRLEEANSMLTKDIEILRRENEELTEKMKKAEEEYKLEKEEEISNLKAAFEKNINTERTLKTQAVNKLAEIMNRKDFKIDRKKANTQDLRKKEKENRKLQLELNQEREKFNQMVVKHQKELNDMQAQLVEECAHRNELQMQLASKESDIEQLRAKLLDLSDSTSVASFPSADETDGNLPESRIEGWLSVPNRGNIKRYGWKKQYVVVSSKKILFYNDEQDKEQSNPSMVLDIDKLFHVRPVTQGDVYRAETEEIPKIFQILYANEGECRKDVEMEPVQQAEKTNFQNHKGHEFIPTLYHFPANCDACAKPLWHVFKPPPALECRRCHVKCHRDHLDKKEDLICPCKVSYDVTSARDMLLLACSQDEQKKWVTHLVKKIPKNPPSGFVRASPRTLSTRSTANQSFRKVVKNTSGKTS
Chain of panel of human kinases (kinase named in endpoint) (Homo sapiens, UniProt Q14004) (Q14004 whole entry): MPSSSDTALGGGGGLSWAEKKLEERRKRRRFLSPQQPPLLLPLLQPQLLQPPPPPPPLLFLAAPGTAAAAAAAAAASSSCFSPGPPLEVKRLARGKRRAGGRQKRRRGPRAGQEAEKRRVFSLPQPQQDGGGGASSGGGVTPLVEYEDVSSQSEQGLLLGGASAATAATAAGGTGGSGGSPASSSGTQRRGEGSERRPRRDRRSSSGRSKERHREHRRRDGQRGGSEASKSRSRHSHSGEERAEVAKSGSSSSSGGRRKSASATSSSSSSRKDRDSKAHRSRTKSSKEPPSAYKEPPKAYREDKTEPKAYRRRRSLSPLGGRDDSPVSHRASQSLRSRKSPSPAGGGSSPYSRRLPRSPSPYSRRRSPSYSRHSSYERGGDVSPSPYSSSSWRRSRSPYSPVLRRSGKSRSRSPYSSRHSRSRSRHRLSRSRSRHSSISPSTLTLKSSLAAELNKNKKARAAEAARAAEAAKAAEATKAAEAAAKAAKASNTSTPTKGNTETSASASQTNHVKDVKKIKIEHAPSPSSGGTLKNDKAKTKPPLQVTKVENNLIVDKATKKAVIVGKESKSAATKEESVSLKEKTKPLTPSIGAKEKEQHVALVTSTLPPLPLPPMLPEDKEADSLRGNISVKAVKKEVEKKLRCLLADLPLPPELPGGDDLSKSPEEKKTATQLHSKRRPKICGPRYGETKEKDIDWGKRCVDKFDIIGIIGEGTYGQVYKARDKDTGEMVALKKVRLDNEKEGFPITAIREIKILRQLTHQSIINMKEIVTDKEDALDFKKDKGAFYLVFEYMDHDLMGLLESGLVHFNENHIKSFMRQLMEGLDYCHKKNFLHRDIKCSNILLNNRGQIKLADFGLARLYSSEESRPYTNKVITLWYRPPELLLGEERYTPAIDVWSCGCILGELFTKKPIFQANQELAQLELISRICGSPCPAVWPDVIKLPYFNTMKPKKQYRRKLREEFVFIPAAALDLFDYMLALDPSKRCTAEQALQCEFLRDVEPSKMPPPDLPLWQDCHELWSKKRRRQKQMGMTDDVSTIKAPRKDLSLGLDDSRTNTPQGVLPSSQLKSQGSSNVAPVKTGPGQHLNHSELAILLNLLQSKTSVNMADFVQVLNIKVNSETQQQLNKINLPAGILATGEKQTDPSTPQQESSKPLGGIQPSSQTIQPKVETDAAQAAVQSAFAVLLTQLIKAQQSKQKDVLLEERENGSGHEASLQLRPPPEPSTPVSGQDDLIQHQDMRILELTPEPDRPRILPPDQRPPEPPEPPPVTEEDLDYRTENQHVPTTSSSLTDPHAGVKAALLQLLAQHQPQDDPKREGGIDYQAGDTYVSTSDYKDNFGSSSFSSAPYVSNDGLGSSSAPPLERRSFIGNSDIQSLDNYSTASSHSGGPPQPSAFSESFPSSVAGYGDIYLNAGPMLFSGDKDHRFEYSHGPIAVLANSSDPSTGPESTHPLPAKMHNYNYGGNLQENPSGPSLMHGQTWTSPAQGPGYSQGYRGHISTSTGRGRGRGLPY
Chain of panel of human kinases (kinase named in endpoint) (Homo sapiens, UniProt Q16539, T106M) (Q16539 whole entry T106M): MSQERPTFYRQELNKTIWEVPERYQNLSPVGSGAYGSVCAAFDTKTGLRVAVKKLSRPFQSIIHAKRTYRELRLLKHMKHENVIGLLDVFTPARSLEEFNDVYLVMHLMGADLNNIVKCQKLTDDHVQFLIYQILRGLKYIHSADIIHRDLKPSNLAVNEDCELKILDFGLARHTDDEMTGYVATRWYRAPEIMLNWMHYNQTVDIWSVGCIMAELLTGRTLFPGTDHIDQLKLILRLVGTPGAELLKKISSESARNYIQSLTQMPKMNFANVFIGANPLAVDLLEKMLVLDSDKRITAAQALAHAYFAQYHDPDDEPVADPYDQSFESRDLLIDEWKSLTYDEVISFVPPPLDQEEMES
Chain of panel of human kinases (kinase named in endpoint) (Homo sapiens, UniProt Q9HCP0) (Q9HCP0 whole entry): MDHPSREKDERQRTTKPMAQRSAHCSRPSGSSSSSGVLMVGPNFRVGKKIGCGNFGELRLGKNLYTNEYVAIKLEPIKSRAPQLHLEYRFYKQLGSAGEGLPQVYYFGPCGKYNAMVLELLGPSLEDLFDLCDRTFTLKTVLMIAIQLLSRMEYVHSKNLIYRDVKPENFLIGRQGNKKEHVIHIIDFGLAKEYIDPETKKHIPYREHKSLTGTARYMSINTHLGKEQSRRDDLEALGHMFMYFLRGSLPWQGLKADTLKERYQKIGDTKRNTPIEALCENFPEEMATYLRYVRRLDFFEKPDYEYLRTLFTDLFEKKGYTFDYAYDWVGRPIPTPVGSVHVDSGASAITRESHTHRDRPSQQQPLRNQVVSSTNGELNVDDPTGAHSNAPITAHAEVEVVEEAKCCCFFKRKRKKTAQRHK

For CC(C)C(=O)Nc1nc2cc(-c3ccc4c(c3)c(C(=O)NC(C)c3ccccc3)cn4C)ccn2n1 (centres unmarked) [RI-962], the activity at 10 µM [1] was 85%, the activity at 10 µM [2] was 85% and the activity at 10 µM [3] was 107%. For the same molecule, the activity at 10 µM [4] was 95%, the activity at 10 µM [5] was 111% and the activity at 10 µM [6] was 89%. It also gave an activity at 10 µM [7] of 100%, an activity at 10 µM [8] of 106% and an activity at 10 µM [9] of 106%. It also gave an activity at 10 µM [10] of 119%, an activity at 10 µM [11] of 92% and an activity at 10 µM [12] of 96%. It also gave an activity at 10 µM [13] of 88%, an activity at 10 µM [14] of 94% and an activity at 10 µM [15] of 79%. For the same molecule, the activity at 10 µM [16] was 107%, the activity at 10 µM [17] was 119% and the activity at 10 µM [18] was 97%. For the same molecule, the activity at 10 µM [19] was 64%, the activity at 10 µM [20] was 86% and the activity at 10 µM [21] was 99%. For the same molecule, the activity at 10 µM [22] was 102%, the activity at 10 µM ([23]; read-out: Activity (%), IGF-1R(h)) was 94% and the activity at 10 µM ([23]; read-out: Activity (%), IGF-1R(h), activated) was 92%. For the same molecule, the activity at 10 µM [24] was 82% and the activity at 10 µM [25] was 103%.
